According to patent publication US8835171B2, “Materials and methods related to sodium/potassium adenosine triphosphase and cholesterol” (The University of Toledo, priority 2010, dated 2014):

Columns and labels:
[1] = target: T1, purified pig kidney Na/K-ATPase (PKE) (Sus scrofa, UniProt P05024); experiment: NBD-cholesterol binding assay with purified pig kidney enzyme (PKE)
T1 construct: Purified Na/K-ATPase membrane samples (PKE) were prepared from pig kidney medulla; from tissue; host or cells: pig kidney outer medulla
From the text: As the purified membrane fragments contained large amount of cholesterol, which may already saturated binding sites on the Na/K-ATPase, most of the cholesterol content was extracted by Mβ-CD (FIG. 5B). To study the binding between the Na/K-ATPase and cholesterol, a cholesterol analogue, 25-[N-[(7-nitro-2-1,3-benzoxadiazol-4-yl)methyl]amino]-27-norcholesterol (NBD cholesterol), was used for the binding assay. NBD-cholesterol was used for the study of protein-cholesterol interaction before. Unlike cholesterol, NBD-cholesterol is able to emit fluorescence signals that peak at ˜530 nm when excited at 473 nm because of the replacement of the methyl group at C25 position with an NBD group (FIG. 5C). In the aqueous solution, its fluorescence is largely quenched. However, when it binds to a protein and is exposed to a hydrophobic environment, the fluorescence signals will increase. Moreover, it has much higher critical micelle concentration (˜650 nM) than that of the cholesterol (30 nM) so that higher concentrations of the NBD-cholesterol can be used during the binding assay. […] The Kd value is 100 nM-200 nM.
To further confirm that the results represented lipid-protein interaction instead of lipid-lipid interaction, the inventors measured fluorescence resonance energy transfer (FRET) signals. […]

LLC-PK1 cells [2] = experiment: Cholesterol assay of LLC-PK1 cell lysates; type: cell-based, pig; conditions: U18666A-treated cells
Protocol: LLC-PK1 cells were grown in 6 cm culture dish to 100% confluence and serum starved for 24 hours. […] […] Cell lysates were subject to protein assay and Western blot analysis. Cholesterol assay and filipin staining were performed as described in Chen et al., Regulation of intracellular cholesterol distribution by Na/K-ATPase. Journal Biological Chemistry, Volume 284, pages 14881-14890 (2009).

Na/K-ATPase α1 [3] = experiment: Immunostaining / confocal imaging of Na/K-ATPase α1 distribution in LLC-PK1 cells; type: cell-based, pig
Na/K-ATPase α1 [4] = experiment: Western blot of Na/K-ATPase α1 level in LLC-PK1 cells; type: cell-based, pig
Protocol: LLC-PK1 cells were grown in 6 cm culture dish to 100% confluence and serum starved for 24 hours. Cells were then treated by 10 mM Mβ-CD for 1 hour. […] Cell lysates were subject to protein assay and Western blot analysis. Protein concentrations of cell lysates or tissue homogenates were measured by Protein Assay Kit from Bio-Rad (Hercules, Calif.). Equal amounts of protein were loaded onto the gel and separated on 10% SDS-PAGE, transferred to an Optitran membrane, and probed with corresponding antibodies. Protein signals were detected with an ECL kit. The density of the Western bands was quantified by the free software Image J.

LLC-PK1 cells [5] = experiment: Filipin staining of cholesterol distribution in LLC-PK1 cells; type: cell-based, pig; conditions: U18666A 24 h
Protocol: Cholesterol assay and filipin staining were performed as described in Chen et al., Regulation of intracellular cholesterol distribution by Na/K-ATPase. Journal Biological Chemistry, Volume 284, pages 14881-14890 (2009).

wild-type rat α1 = experiment: α1 and filipin staining in wild-type rat α1-rescued cells (AAC-19); type: cell-based; conditions: AAC-19 cells, different doses of U18666A 24 h
Protocol: Thus, it was of interest to explore whether the CRAC plays a role in cholesterol depletion-induced α1 endocytosis. Firstly, the inventors treated wild-type rat α1 rescued-cells, AAC-19, with U18666A and stained both α1 and cholesterol. […] Staining of the Na/K-ATPase α1 was performed as previously described. Briefly, cells were serum-starved for 24 hours and treated on coverslips. The cells were then fixed with ice-cold methanol for 30 min and blocked with Signal Enhancer from Invitrogen. Next, cells were incubated with a monoclonal anti-Na/K-ATPase α1 antibody at 4° C. overnight. After three washes with PBS, a secondary Alex 488-conjugated anti-mouse antibody was added and incubated at room temperature for 3 hours. The coverslip was washed, mounted and imaged with a Leica confocal microscope.

Na/K-ATPase α1 mRNA = experiment: Quantitative RT-PCR of α1 mRNA; type: cell-based, pig; conditions: LLC-PK1 cells, 10 μg/ml U18666A 24 h
Protocol: The quantitative RT-PCR on mRNA levels of Na/K-ATPase α1 and GAPDH were performed as described in Tian et al., Changes in sodium pump expression dictate the effects of ouabain on cell growth, Journal of Biological Chemistry, 14921-1429 (2009).

Y55S mutant rat α1 = experiment: α1 and filipin staining in Y55S mutant rat α1-rescued cells (PY-17-Y55S); type: cell-based; conditions: PY-17-Y55S cells, different doses of U18666A 24 h
From the text: Next, the inventors mutated the essential Tyr55 in the rat α1 CRAC (corresponds to the Tyr53 in pig α1) to Ser55 by a site-directed mutagenesis method and generated the stable mutant rat α1-rescued cell line (PY-17-Y55S). Once the cell line was established, the inventors did the same experiment as on AAC-19 cells. […] To confirm the findings, the inventors had the CRAC synthesized with a positively charged leader peptide, HIV-TAT, tagged to the N-terminus of CRAC so that the TAT-CRAC peptide was cell permeable. Theoretically, loading of the TAT-CRAC peptide into the cells may interrupt the binding between endogenous α1 and cholesterol by competitive inhibition. […] Taken together, the cholesterol-regulated Na/K-ATPase α1 membrane trafficking is dependent on the cholesterol-α1 interaction.
The rat α1 CRAC mutant (Tyr55 to Ser55) was created by PCR-based site-directed mutagenesis on the pRc/CMV-a1AACm1 plasmid as generated previously. The Y55S mutant rat α1 knock-in cell line was then established using the same protocol described before. The pEYFP-α1 plasmid was generated as described previously. RFP-rab7 plasmid was requested from www.addgene.org. The preparation of plasmid constructs expressing GST fusion proteins were made from pGEX-4T-1 as previously described. GST-NT (Ala1-Ser160) and GST-NT-Y55S expression vectors were constructed based on sequence of pig kidney Na/K-ATPase α1 subunit. […]

cell surface Na/K-ATPase = experiment: 3H-ouabain binding assay of cell surface Na/K-ATPase; type: cell-based, pig; conditions: LLC-PK1 cells, U18666A
Protocol: [3H]Ouabain Binding was conducted as described in Tian et al., Changes in sodium pump expression dictate the effects of ouabain on cell growth, Journal of Biological Chemistry, 14921-1429 (2009).

[6] = system: insulin receptor β subunit; experiment: Western blot of insulin receptor in LLC-PK1 cells; type: cell-based, pig
Protocol: (§1) Protein concentrations of cell lysates or tissue homogenates were measured by Protein Assay Kit from Bio-Rad (Hercules, Calif.). Equal amounts of protein were loaded onto the gel and separated on 10% SDS-PAGE, transferred to an Optitran membrane, and probed with corresponding antibodies. Protein signals were detected with an ECL kit. The density of the Western bands was quantified by the free software Image J.

caveolin-1 = experiment: Western blot of caveolin-1 in LLC-PK1 cells; type: cell-based, pig; conditions: U18666A 48 h
Protocol: as §1

LLC-PK1 cells [7] = conditions: 10 mM Mβ-CD 30-60 minutes at 37°, previous work from the inventors' lab; cited from earlier work

CC(CCC[C@@H](C)[C@@H]1CC[C@H]2[C@@H]3CC=C4C[C@@H](O)CC[C@]4(C)[C@H]3CC[C@@]21C)N(C)c1ccc([N+](=O)[O-])c2nonc12 (stereo partly shown) [NBD-cholesterol, 25-[N-[(7-nitro-2-1,3-benzoxadiazol-4-yl)methyl]amino]-27-norcholesterol]
FRET signals at 530 nm on incubation with PKE ([1]; Trp excited at 295 nm): dose-dependent saturation curve

CCN(CC)CCO[C@H]1CC[C@@]2(C)C(=CC[C@@H]3[C@@H]2CC[C@]2(C)C(=O)CC[C@@H]32)C1 [U18666A]
total cellular cholesterol (LLC-PK1 cells [2]): no significant difference | intracellular α1 accumulation, colocalization with RFP-Rab7 (Na/K-ATPase α1 [3]; LLC-PK1 cells transfected with RFP-rab7, 5 μg/ml U18666A 24 h): massive intracellular α1 accumulation, most of which clearly colocalized with the Rab7 signals | colocalization of internalized YFP-α1 with free cholesterol (Na/K-ATPase α1 [3]; LLC-PK1 cells transfected with YFP-α1, 5 μg/ml U18666A 24 h): most of the internalized α1 colocalized with free cholesterol | α1 signals, cellular distribution (Na/K-ATPase α1 [3]; LLC-PK1 cells, U18666A 24 h): reduced in the plasma membrane but increased in the intracellular compartments | downregulation of α1 expression (Na/K-ATPase α1 [4]; U18666A 24 h and 48 h): both dose and time-dependent | distribution of free cholesterol (LLC-PK1 cells [5]): redistribution of free cholesterol from the plasma membrane to intracellular compartments | endocytosis of α1 (wild-type rat α1): endocytosis of α1 in a dose-dependent manner | α1 mRNA level (Na/K-ATPase α1 mRNA): no difference compared to control | endocytosis of α1 (Y55S mutant rat α1): no obvious endocytosis | cell surface α1 by 3H-ouabain binding (cell surface Na/K-ATPase): downregulation of cell surface α1 | insulin receptor content ([6]; LLC-PK1 cells after U18666A treatment): remained undisturbed | caveolin-1 protein level (caveolin-1): downregulated

CC(C)CCC[C@@H](C)[C@H]1CC[C@H]2[C@@H]3CC=C4C[C@@H](O)CC[C@]4(C)[C@H]3CC[C@]12C [cholesterol]
competition of binding between NBD-cholesterol and purified PKE ([1]; 100 nM PKE, 30 nM NBD-cholesterol, FRET): competed the binding

C[C@@H]1C[C@@H]([C@H](O)CC2CC(=O)NC(=O)C2)C(=O)[C@@H](C)C1 [cycloheximide]
effect on U18666A-induced α1 redistribution to the intracellular compartments (Na/K-ATPase α1 [3]; cycloheximide 10 μg/ml 1 h before U18666A 24 h): did not prevent

methyl β-cyclodextrin [Mβ-CD]
plasma membrane cholesterol pool (LLC-PK1 cells [7]): significantly lowered | α1 immunostaining signals (Na/K-ATPase α1 [3]; Mβ-CD treated LLC-PK1 cells): lower α1 signals from the plasma membrane | decrease in α1 level (Na/K-ATPase α1 [4]; 10 mM Mβ-CD 1 h, 0 h recovery): ~40% | expression of insulin receptor ([6]; during cholesterol depletion by Mβ-CD and repletion): unchanged
